# Assay results published in patent publication US4608338A, “Process for bioconversion-product recovery” (Celanese Corporation, priority 1982, dated 1986).
# Legend:
# [1] = solubility of muconic acid in acidified aqueous fermentation medium; format: physicochemical; details: pH of 1-2, 20° C.
# Method: Under optimal conditions, the muconic acid accumulation limit can approach up to about 50 grams of muconic acid per liter of growth medium. The microbiological oxidation step of the present invention process normally is conducted at ambient temperatures up to about 31° C. The muconic acid at a concentration between about 10-45 grams/liter in the cell-free ammonia-neutralized aqueous fermentation medium is precipitated with sulfuric acid or phosphoric acid. The precipitated muconic acid (solubility at pH of 1-2, about 0.07% at 20° C.) is filtered, washed and dried. In a further embodiment of the present invention, the muconic acid is admixed with a solvent medium such as acetic acid (e.g., to form a 40 weight percent muconic acid/acetic acid slurry solution), and then treated under hydrogenation conditions to yield adipic acid.
# [2] = solubility of muconic acid at pH 1.0 (Example III B, precipitation from regular "NO" medium); format: physicochemical
# Method: To 500 ml of regular "NO" medium are added 15 grams of cis, cis-muconic acid. The pH of the solution is about […]. A 14.2 ml quantity of concentrated NH4 OH solution (15N) is added to adjust the pH to 6.2.
# To the neutralized solution is added a 17 ml quantity of concentrated H2 SO4 solution, which lowers the pH of the solution to 0.99. White solids precipitate from the solution, and the solids are filtered, washed and recovered as muconic acid (quantitative recovery; solubility of muconic acid at pH 1.0 is 0.03 wt %).
compound,measurement,setting,value
"O=C(O)/C=C\C=C/C(=O)O [muconic acid, cis, cis-muconic acid]",solubility,[1],about 0.07%
same,solubility,[2],0.03 wt %
